# Test results as given in US9095598B2, “Stilbenoid derivatives and their uses” (The Board of Trustees of the University of Arkansas, priority 2010, dated 2015).
# Like-named read-outs stand apart in the source and are kept apart here.
# Key:
# CB1 receptors [1] = molecular target: T1, CB1 receptors (Mus musculus, UniProt P47746); format: biochemical
# T1 construct: from tissue; host or cells: mouse brain membranes
# [2] = molecular target: T2, human recombinant UGT1A10 (Homo sapiens, UniProt Q9HAW8); assay: Glucuronidation by recombinant human UGT1A10 (activity screen and kinetic constants); conditions: for glucuronide formation, in words (FIG. 1): substrate 250 μM, UDP-GlcUA 4 mM
# T2 sequence (Q9HAW8 26-530): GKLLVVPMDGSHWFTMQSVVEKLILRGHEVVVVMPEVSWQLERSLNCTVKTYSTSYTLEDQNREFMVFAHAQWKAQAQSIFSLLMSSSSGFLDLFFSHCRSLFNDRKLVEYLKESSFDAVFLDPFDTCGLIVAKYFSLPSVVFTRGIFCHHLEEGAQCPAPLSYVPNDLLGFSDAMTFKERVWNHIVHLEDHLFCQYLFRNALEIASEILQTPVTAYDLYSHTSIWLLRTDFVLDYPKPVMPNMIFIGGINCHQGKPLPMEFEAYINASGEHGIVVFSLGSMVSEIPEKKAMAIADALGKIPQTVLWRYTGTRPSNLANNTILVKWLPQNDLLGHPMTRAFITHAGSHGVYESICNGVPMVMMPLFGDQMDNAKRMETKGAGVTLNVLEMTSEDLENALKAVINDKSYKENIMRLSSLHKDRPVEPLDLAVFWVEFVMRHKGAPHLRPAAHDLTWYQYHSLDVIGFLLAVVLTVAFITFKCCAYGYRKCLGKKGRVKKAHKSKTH
# Protocol: (§1) Eight human recombinant UGT1A isoforms (UGT1A1, 1A3, 1A4, 1A6, 1A7, 1A8, 1A9, and 1A10; 5 μg) expressed as His-tag proteins in baculovirus-infected Sf9 insect cells and human liver microsomes (from one donor; HL2; 50 μg) and human intestinal microsomes (from two donors; HI36 and HI41; 50 μg) were evaluated for their ability to glucuronidate these four compounds. The concentrations of the substrate and co-substrate (i.e., UDP-GlcUA) were 250 μM and 4 mM, respectively. Glucuronidation products were analyzed by HPLC and LCMS/MS.
# (§2) The kinetic constants of the glucuronidation reactions using recombinant human UGT1A1 and UGT1A10 were determined by measuring the enzyme activity in the presence of increasing concentrations of substrate (see FIG. 2).
# CB1 receptors [3] = format: biochemical, mouse; conditions: 10 μM, 30 min at 30° C.
# human CB2 = molecular target: T3, human CB2 (Homo sapiens, UniProt P34972); assay: CB2 receptor binding, CHO-hCB2 membranes, 3H-CP 55,940 displacement; conditions: 0.2 nM 3H-CP 55,940, 90 min room temperature
# T3 construct: expressed in transfected cells; host or cells: CHO cells, stably transformed; membrane preparations
# T3 sequence (P34972 whole entry): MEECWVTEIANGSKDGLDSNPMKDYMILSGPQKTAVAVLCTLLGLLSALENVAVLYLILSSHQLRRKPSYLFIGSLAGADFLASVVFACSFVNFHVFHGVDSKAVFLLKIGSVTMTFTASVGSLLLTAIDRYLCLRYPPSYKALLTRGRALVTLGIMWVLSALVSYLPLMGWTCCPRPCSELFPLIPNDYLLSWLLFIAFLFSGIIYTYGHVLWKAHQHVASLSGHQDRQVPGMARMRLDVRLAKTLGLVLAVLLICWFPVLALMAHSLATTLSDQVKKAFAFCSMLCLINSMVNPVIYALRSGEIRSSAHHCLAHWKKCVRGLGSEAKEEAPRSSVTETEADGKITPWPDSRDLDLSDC
# Protocol: (§3) Membrane preparations were prepared from mouse brain to examine CB1 binding. For CB2 binding, membrane preparations were prepared from CHO cells stably transformed with human CB2.
# human recombinant UGT1A1 [4] = molecular target: T4, human recombinant UGT1A1 (Homo sapiens, UniProt P22309); assay: Glucuronidation by recombinant human UGT1A1 (activity screen and kinetic constants); conditions: for Kinetics (model): — = No activity; for glucuronide formation, in words (FIG. 1): substrate 250 μM, UDP-GlcUA 4 mM
# T4 sequence (P22309 26-533): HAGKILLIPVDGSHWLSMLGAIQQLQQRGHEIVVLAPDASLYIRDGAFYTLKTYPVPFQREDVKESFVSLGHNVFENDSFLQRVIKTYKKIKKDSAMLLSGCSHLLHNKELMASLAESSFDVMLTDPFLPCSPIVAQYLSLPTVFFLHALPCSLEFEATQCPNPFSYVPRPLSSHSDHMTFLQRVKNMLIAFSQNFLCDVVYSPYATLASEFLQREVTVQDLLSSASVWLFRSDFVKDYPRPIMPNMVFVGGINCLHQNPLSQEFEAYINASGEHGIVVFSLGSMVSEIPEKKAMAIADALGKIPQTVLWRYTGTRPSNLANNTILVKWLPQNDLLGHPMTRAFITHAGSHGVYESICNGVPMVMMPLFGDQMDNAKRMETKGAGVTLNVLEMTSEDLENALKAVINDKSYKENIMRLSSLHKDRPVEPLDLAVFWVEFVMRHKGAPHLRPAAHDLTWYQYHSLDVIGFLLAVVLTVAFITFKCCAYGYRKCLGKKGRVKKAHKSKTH
# Protocol: as §1, §2
# [5] = test system: sepsis-induced renal injury (CLP); assay: Murine cecal ligation and puncture (CLP) model of sepsis-induced renal injury; format: in vivo, mice; conditions: 30 mg/kg i.p. 30 min prior to and 6 hr post CLP; 18 hr post CLP
# From the text: Control (sham) mice underwent surgery but not CLP. Each treatment group contained 4-5 mice. Renal ONOO^− generation (rhodamine fluorescence) and renal peritubular capillary perfusion were quantified using intravital video microscopy (IVVM) on anesthetized mice in each of the treatment groups.
# [6] = molecular target: T2, human recombinant UGT1A10; conditions: 250 μM
# Protocol: as §1, §2
# human recombinant UGT1A1 [7] = molecular target: T4, human recombinant UGT1A1; conditions: 250 μM
# Protocol: as §1, §2
# [8] = molecular target: T5, CB1 receptors (mouse brain-mCB1 membranes) (Mus musculus, UniProt P47746); assay: CB1 receptor binding, mouse brain membranes, 3H-CP 55,940 displacement
# T5 construct: from tissue; host or cells: mouse brain membranes
# T5 sequence (P47746 whole entry): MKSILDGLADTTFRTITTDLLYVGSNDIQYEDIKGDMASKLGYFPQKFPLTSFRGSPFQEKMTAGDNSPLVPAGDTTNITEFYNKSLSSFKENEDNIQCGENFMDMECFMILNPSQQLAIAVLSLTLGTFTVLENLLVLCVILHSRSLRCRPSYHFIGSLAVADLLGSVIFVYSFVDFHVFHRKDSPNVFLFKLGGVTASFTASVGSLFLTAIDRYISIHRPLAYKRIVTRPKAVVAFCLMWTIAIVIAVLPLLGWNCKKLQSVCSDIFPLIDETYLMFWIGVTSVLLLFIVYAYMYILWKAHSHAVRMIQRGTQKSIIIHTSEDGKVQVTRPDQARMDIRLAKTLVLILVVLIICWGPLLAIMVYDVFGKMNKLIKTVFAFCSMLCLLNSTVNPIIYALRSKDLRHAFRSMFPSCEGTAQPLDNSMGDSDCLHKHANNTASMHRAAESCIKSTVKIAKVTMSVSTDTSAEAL
# Protocol: as §3
# [9] = product 4′-glucuronide (4′G), USI = substrate inhibition
# T1 sequence (P47746 whole entry): as above
Compound,"Kinetics (model) [2, 9]","glucuronide formation, in words (FIG. 1) [2]","effect on basal G-protein activity, in words (CB1 receptors [3])",Ki (human CB2) [µM],Kinetics (model) (human recombinant UGT1A1 [4]; product 3-glucuronide (3G)),Kinetics (model) (human recombinant UGT1A1 [4]; product 4′-glucuronide (4′G)),"glucuronide formation, in words (FIG. 1) (human recombinant UGT1A1 [4])",other results
"CCCCCCC(C)(C)c1ccc([C@@H]2C[C@H](O)CC[C@H]2CCCO)c(O)c1 [CP-55,940, reference compound]",–,–,–,–,–,–,–,"effect on G-protein activity, in words (CB1 receptors [1]; 1 μM, 30 min at 30° C.): stimulated; maximal response produced by CP-55,940 (CB1 receptors [1]; CP-55,940 alone): 0.34+/−0.03 pmole/mg protein"
"CC1=CC[C@@H]2[C@@H](C1)c1c(O)cc(CC#CCCCNS(C)(=O)=O)cc1OC2(C)C [O-2050, reference compound]",–,–,–,–,–,–,–,"effect of co-incubation on CP-55,940 stimulation and AM251 inhibition of G-protein activity (CB1 receptors [1]; data not shown): blocked"
"CC(C)/C=C/c1c(O)cc(/C=C/c2ccc(O)cc2)cc1O [tA3, trans-arachidin-3]",USI,significant inhibition of 3-O-glucuronidation,little effect,11.3 ± 0.6,M-M,M-M,significant inhibition of 3-O-glucuronidation,"Kinetics (model) ([2]; product 4′-glucuronide (4′G), USI = substrate inhibition, listed as 1A3): substrate inhibition kinetics"
"Oc1cc(O)cc(/C=C/c2ccc(O)c(O)c2)c1 [tPice, trans-piceatannol]",Hill,–,markedly reduced,–,M-M,M-M,–,"Kinetics (model) ([2]; product 3-glucuronide (3G), — = No activity): M-M"
"Oc1ccc(/C=C/c2cc(O)cc(O)c2)cc1 [tRes, trans-resveratrol]",–,–,little effect,65.5 ± 12,–,–,–,"RNS generation in the kidney (rhodamine fluorescence, IVVM) [5]: blocked RNS generation in the kidney; renal peritubular capillary perfusion (IVVM) [5]: preserved renal capillary perfusion; glucuronide formation, in words (FIG. 1) [6]: glucuronidated to 3-O— and 4′-O-Glucs; glucuronide formation, in words (FIG. 1) (human recombinant UGT1A1 [7]): glucuronidated to 3-O— and 4′-O-Glucs"
trans-arachidin-1 [tA1],substrate inhibition kinetics and USI,formation of the 3-O-Gluc,markedly reduced,12.6 ± 1.7,–,–,completely blocked formation of any Gluc,"enhancement of binding affinity for CB1 (isoprenyl plus additional hydroxyl group) [8]: 2 fold; increase (shift-to-the-right) in the ED50 of CP-55,940 (CB1 receptors [1]; 10 μM tA-1): 7 fold; maximal response produced by CP-55,940 in presence of test compound (CB1 receptors [1]; with tA-1 (10 μM)): 0.22+/−0.04 pmole/mg protein"
